# Several values for one entry are separate records, joined by “and”; a condition that tells them apart may be missing. Identical values can stand only once.
# Test system: subcutaneous SW1222 xenografts (A33 antigen-expressing human colorectal carcinoma)
# Assay: Pretargeted biodistribution with huA33-TCO and ^64Cu-tetrazine radioligand
# Format: in vivo, athymic nude mice
# Experimental: Female athymic nude mice bearing subcutaneous SW1222 (right shoulder) xenografts (100-150 mm^3, 18-21 days post-inoculation) were administered 100 μg (0.66 nmol) huA33-TCO (in 200 μL 0.9% sterile saline) via intravenous tail vein injection. […] The specific activity of the radiotracer was adjusted using cold ^natCu-Tz-SarAr such that the molar ratio of Tzinjected:huA^33injected=1:1. Animals (n=4 per group) were euthanized by CO2(g) asphyxiation at 1, 4, 12, and 24 h after injection. After asphyxiation, 13 tissues were removed, rinsed in water, dried in air for 5 min, weighed, and counted in a gamma counter calibrated for ^64Cu. Counts were converted into activity using a calibration curve generated from known standards. Count data were background- and decay-corrected to the time of injection, and the percent injected dose per gram (% ID/g) for each tissue sample was calculated by normalization to the total activity injected. Contents within the stomach, small intestine, and large intestine were not removed for the measurements.
# Contents within the stomach, small intestine, and large intestine were not removed for the measurements. […] Zeglis, B. M. et al. “A pretargeted PET imaging strategy based on bioorthogonal Diels-Alder click chemistry.” Journal of Nuclear Medicine. 54, 1389-1396 (2013). ©2013 by the Society of Nuclear Medicine and Molecular Imaging, Inc.
# Zeglis, B. M. et al. “A pretargeted PET imaging strategy based on bioorthogonal Diels-Alder click chemistry.” Journal of Nuclear Medicine. 54, 1389-1396 (2013). ©2013 by the Society of Nuclear Medicine and Molecular Imaging, Inc.
# (§1) Female athymic nude mice bearing subcutaneous SW1222 (right shoulder) xenografts (100-150 mm^3, 18-21 days post-inoculation) were administered 100 μg (0.66 nmol) huA33-TCO (in 200 μL 0.9% sterile saline) via intravenous tail vein injection. After an accumulation interval of 48 h, the same mice were then administered ^64Cu-Tz-SarAr (300-350 μCi in 200 μL 0.9% sterile saline) via intravenous tail vein injection (t=0). The specific activity of the radiotracer was adjusted using cold ^natCu-Tz-SarAr such that the molar ratio of Tzinjected:huA^33injected=1:1. Animals (n=4 per group) were euthanized by CO2(g) asphyxiation at 1, 4, 12, and 24 h after injection. After asphyxiation, tissues were removed, rinsed in water, dried in air for 5 min, weighed, and counted in a gamma counter calibrated for ^64Cu. Counts were converted into activity using a calibration curve generated from known standards. Count data were background- and decay-corrected to the time of injection, and the percent injected dose per gram (% ID/g) for each tissue sample was calculated by normalization to the total activity injected. Contents within the stomach, small intestine, and large intestine were not removed for the measurements.
# as §1, with “120” for “48”, “Contents within the stomach, small intestine, and large intestine were not removed for the measurements.” left out
# [1] = 48 h accumulation interval, 12 h p.i.
# [2] = 48 h accumulation interval, 24 h p.i.
# [3] = 120 h accumulation interval, 1 h p.i.
# [4] = 120 h accumulation interval, 4 h p.i.
# [5] = 120 h accumulation interval, 12 h p.i.
# [6] = 120 h accumulation interval, 24 h p.i.
smiles,measurement,setting,value
NC12CNCCNCC(NCc3ccc(CNC(=O)CCCC(=O)NCc4ccc(-c5nncnn5)cc4)cc3)(CNCCNC1)CNCCNC2.[64Cu+2] [^64Cu-Tz-SarAr],Blood activity concentration,[1],1.81 ± 0.54 % ID/g
same,Bone activity concentration,[1],0.3 ± 0.07 % ID/g
same,Heart activity concentration,[1],0.88 ± 0.33 % ID/g
same,Kidney activity concentration,[1],2.04 ± 0.36 % ID/g
same,Large Intestine activity concentration,[1],0.22 ± 0.08 % ID/g
same,Liver activity concentration,[1],1.08 ± 0.32 % ID/g
same,Lung activity concentration,[1],1.00 ± 0.18 % ID/g
same,Muscle activity concentration,[1],0.15 ± 0.02 % ID/g
same,Small Intestine activity concentration,[1],0.3 ± 0.08 % ID/g
same,Spleen activity concentration,[1],0.56 ± 0.11 % ID/g
same,Stomach activity concentration,[1],0.12 ± 0.04 % ID/g
same,Tumor activity concentration,[1],4.94 ± 1.12 % ID/g
same,Tumor/Blood activity concentration ratio,[1],2.72 ± 1.03
same,Tumor/Bone activity concentration ratio,[1],16.24 ± 5.16
same,Tumor/Heart activity concentration ratio,[1],5.62 ± 2.47
same,Tumor/Kidney activity concentration ratio,[1],2.42 ± 0.7
same,Tumor/Large Intestine activity concentration ratio,[1],22.66 ± 10.19
same,Tumor/Liver activity concentration ratio,[1],4.58 ± 1.69
same,Tumor/Lung activity concentration ratio,[1],4.94 ± 1.45
same,Tumor/Muscle activity concentration ratio,[1],33.88 ± 9.31
same,Tumor/Small Intestine activity concentration ratio,[1],16.47 ± 5.62
same,Tumor/Spleen activity concentration ratio,[1],8.75 ± 2.61
same,Tumor/Stomach activity concentration ratio,[1],41.88 ± 18.35
same,Blood activity concentration,[2],0.92 ± 0.31 % ID/g
same,Bone activity concentration,[2],0.18 ± 0.05 % ID/g
same,Heart activity concentration,[2],0.45 ± 0.08 % ID/g
same,Kidney activity concentration,[2],1.47 ± 0.43 % ID/g
same,Large Intestine activity concentration,[2],0.16 ± 0.03 % ID/g
same,Liver activity concentration,[2],1.28 ± 0.33 % ID/g
same,Lung activity concentration,[2],1.05 ± 0.51 % ID/g
same,Muscle activity concentration,[2],0.11 ± 0.04 % ID/g
same,Small Intestine activity concentration,[2],0.22 ± 0.07 % ID/g
same,Spleen activity concentration,[2],0.5 ± 0.1 % ID/g
same,Stomach activity concentration,[2],0.15 ± 0.03 % ID/g
same,Tumor activity concentration,[2],4.85 ± 0.67 % ID/g
same,Tumor/Blood activity concentration ratio,[2],5.27±1.92
same,Tumor/Bone activity concentration ratio,[2],26.55 ± 7.58
same,Tumor/Heart activity concentration ratio,[2],10.9 ± 2.55
same,Tumor/Kidney activity concentration ratio,[2],3.31 ± 1.07
same,Tumor/Large Intestine activity concentration ratio,[2],29.58 ± 6.11
same,Tumor/Liver activity concentration ratio,[2],3.8 ± 1.11
same,Tumor/Lung activity concentration ratio,[2],4.61 ± 2.32
same,Tumor/Muscle activity concentration ratio,[2],44.18 ± 17.61
same,Tumor/Small Intestine activity concentration ratio,[2],21.72 ± 7.59
same,Tumor/Spleen activity concentration ratio,[2],9.8 ± 2.47
same,Tumor/Stomach activity concentration ratio,[2],32.81 ± 8.37
same,Blood activity concentration,[3],1.39 ± 0.19 % ID/g
same,Bone activity concentration,[3],0.21 ± 0.03 % ID/g
same,Heart activity concentration,[3],0.52 ± 0.06 % ID/g
same,Kidney activity concentration,[3],1.80 ± 0.12 % ID/g
same,Large Intestine activity concentration,[3],0.29 ± 0.16 % ID/g
same,Liver activity concentration,[3],1.65 ± 0.07 % ID/g
same,Lung activity concentration,[3],1.41 ± 0.21 % ID/g
same,Muscle activity concentration,[3],0.20 ± 0.03 % ID/g
same,Small Intestine activity concentration,[3],0.34 ± 0.03 % ID/g
same,Spleen activity concentration,[3],0.60 ± 0.13 % ID/g
same,Stomach activity concentration,[3],0.32 ± 0.13 % ID/g
same,Tumor activity concentration,[3],3.61 ± 0.45 % ID/g
same,Tumor/Blood activity concentration ratio,[3],2.61 ± 0.48
same,Tumor/Bone activity concentration ratio,[3],17.27 ± 3.03
same,Tumor/Heart activity concentration ratio,[3],7.00 ± 1.22
same,Tumor/Kidney activity concentration ratio,[3],2.01 ± 0.29
same,Tumor/Large Intestine activity concentration ratio,[3],12.39 ± 7.14
same,Tumor/Liver activity concentration ratio,[3],2.19 ± 0.29
same,Tumor/Lung activity concentration ratio,[3],2.55 ± 0.49
same,Tumor/Muscle activity concentration ratio,[3],18.41 ± 3.47
same,Tumor/Small Intestine activity concentration ratio,[3],10.53 ± 1.58
same,Tumor/Spleen activity concentration ratio,[3],6.02 ± 1.46
same,Tumor/Stomach activity concentration ratio,[3],11.37 ± 4.88
same,Blood activity concentration,[4],1.05±0.29 % ID/g
same,Bone activity concentration,[4],0.16 ± 0.04 % ID/g
same,Heart activity concentration,[4],0.43 ± 0.11 % ID/g
same,Kidney activity concentration,[4],2.10 ± 0.20 % ID/g
same,Large Intestine activity concentration,[4],0.20 ± 0.13 % ID/g
same,Liver activity concentration,[4],1.16 ± 0.39 % ID/g
same,Lung activity concentration,[4],0.91 ± 0.22 % ID/g
same,Muscle activity concentration,[4],0.11 ± 0.05 % ID/g
same,Small Intestine activity concentration,[4],0.22 ± 0.03 % ID/g
same,Spleen activity concentration,[4],0.50 ± 0.05 % ID/g
same,Stomach activity concentration,[4],0.25 ± 0.12 % ID/g
same,Tumor activity concentration,[4],3.6±0.7 % ID/g and 3.55 ± 0.74 % ID/g
same,Tumor/Blood activity concentration ratio,[4],3.37 ± 1.16
same,Tumor/Bone activity concentration ratio,[4],21.53 ± 7.14
same,Tumor/Heart activity concentration ratio,[4],8.24 ± 2.71
same,Tumor/Kidney activity concentration ratio,[4],1.69 ± 0.39
same,Tumor/Large Intestine activity concentration ratio,[4],17.82 ± 12.22
same,Tumor/Liver activity concentration ratio,[4],3.06 ± 1.2
same,Tumor/Lung activity concentration ratio,[4],3.89 ± 1.23
same,Tumor/Muscle activity concentration ratio,[4],32.58 ± 16.17
same,Tumor/Small Intestine activity concentration ratio,[4],16.22 ± 3.91
same,Tumor/Spleen activity concentration ratio,[4],7.03 ± 1.64
same,Tumor/Stomach activity concentration ratio,[4],14.04 ± 7.07
same,Blood activity concentration,[5],0.44 ± 0.14 % ID/g
same,Bone activity concentration,[5],0.11 ± 0.04 % ID/g
same,Heart activity concentration,[5],0.34 ± 0.20 % ID/g
same,Kidney activity concentration,[5],2.11 ± 0.13 % ID/g
same,Large Intestine activity concentration,[5],0.09 ± 0.03 % ID/g
same,Liver activity concentration,[5],0.96 ± 0.09 % ID/g
same,Lung activity concentration,[5],0.59 ± 0.27 % ID/g
same,Muscle activity concentration,[5],0.08 ± 0.04 % ID/g
same,Small Intestine activity concentration,[5],0.15 ± 0.07 % ID/g
same,Spleen activity concentration,[5],0.34 ± 0.14 % ID/g
same,Stomach activity concentration,[5],0.09 ± 0.03 % ID/g
same,Tumor activity concentration,[5],3.29 ± 0.40 % ID/g
same,Tumor/Blood activity concentration ratio,[5],7.46 ± 2.54
same,Tumor/Bone activity concentration ratio,[5],29.07 ± 11.14
same,Tumor/Heart activity concentration ratio,[5],9.56 ± 5.64
same,Tumor/Kidney activity concentration ratio,[5],1.56 ± 0.21
same,Tumor/Large Intestine activity concentration ratio,[5],35.43 ± 12.17
same,Tumor/Liver activity concentration ratio,[5],3.43 ± 0.52
same,Tumor/Lung activity concentration ratio,[5],5.55 ± 2.62
same,Tumor/Muscle activity concentration ratio,[5],38.74 ± 20.11
same,Tumor/Small Intestine activity concentration ratio,[5],21.47 ± 9.60
same,Tumor/Spleen activity concentration ratio,[5],9.63 ± 4.03
same,Tumor/Stomach activity concentration ratio,[5],38.07 ± 12.42
same,Blood activity concentration,[6],0.75 ± 0.23 % ID/g
same,Bone activity concentration,[6],0.25 ± 0.08 % ID/g
same,Heart activity concentration,[6],0.40 ± 0.16 % ID/g
same,Kidney activity concentration,[6],1.90 ± 0.17 % ID/g
same,Large Intestine activity concentration,[6],0.16 ± 0.04 % ID/g
same,Liver activity concentration,[6],1.06 ± 0.16 % ID/g
same,Lung activity concentration,[6],0.85 ± 0.29 % ID/g
same,Muscle activity concentration,[6],0.14 ± 0.05 % ID/g
same,Small Intestine activity concentration,[6],0.17 ± 0.06 % ID/g
same,Spleen activity concentration,[6],0.69 ± 0.17 % ID/g
same,Stomach activity concentration,[6],0.15 ± 0.08 % ID/g
same,Tumor activity concentration,[6],4.34 ± 0.98 % ID/g
same,Tumor/Blood activity concentration ratio,[6],5.74±2.17
same,Tumor/Bone activity concentration ratio,[6],17.16 ± 6.90
same,Tumor/Heart activity concentration ratio,[6],10.76 ± 4.94
same,Tumor/Kidney activity concentration ratio,[6],2.29 ± 0.56
same,Tumor/Large Intestine activity concentration ratio,[6],26.48 ± 8.29
same,Tumor/Liver activity concentration ratio,[6],4.09 ± 1.13
same,Tumor/Lung activity concentration ratio,[6],5.09 ± 2.06
same,Tumor/Muscle activity concentration ratio,[6],30.39 ± 11.94
same,Tumor/Small Intestine activity concentration ratio,[6],25.34 ± 10.4
same,Tumor/Spleen activity concentration ratio,[6],6.26 ± 2.09
same,Tumor/Stomach activity concentration ratio,[6],29.21 ± 17.97

# Source: US11135320B2, “Radioligands for pretargeted pet imaging and methods of their therapeutic use” (priority 2015, dated 2021)
